According to patent publication US8394630B2, “Producing a mammalian pluripotent cell population from mammalian blastomere-like stem cells (BLSCs)” (StemBios Technologies, Inc., priority 2009, dated 2013):

System: BLSCs
Test: Culturing BLSCs in medium containing RA or TGF-β to produce SBR and SBT cells
Type: cell-based, human
Details: StemBios-003 medium, 0.1 to 20 μM RA or 1 to 40 nM TGF-β, over 2-6 weeks
Experimental: The method for activation, purification, and expansion of BLSCs has been described in WO/2007/100845. In this example, BLSCs were purified from blood of a human subject using two methods. The isolated cells were analyzed by flow cytometry.
The purified BLSCs were cultured in StemBios-001. To produce SBR and SBT cells, BLSCs were cultured in a StemBios-002 medium for 2 weeks. Then, the BLSCs were cultured in a StemBios-003 medium containing 0.1 to 20 μM of RA or 1 to 40 nM of TGF-β for over 2˜6 weeks. […] These cells were named SBR and SBT cells respectively.

TGF-β
change of morphology and sizes of cultured BLSCs: gradually changed their morphology and sizes
